The source of these data is US11389424B2, “Methods and compositions for treating chemotherapy-induced diarrhea” (NAPO PHARMACEUTICALS, INC., priority 2017, dated 2022).

Like-named read-outs stand apart in the source and are kept apart here.

Series [1] concerns recurrent, cutaneous mast cell tumors. As to conditions: cited from earlier work.
Series [2] in a line: 9-month toxicity study (WIL-288022), oral (capsule) administration of enteric-coated crofelemer tablets. Further details: species or system beagle dogs. To be noted: dog, in vivo. The protocol:
The dose for this study was based on data obtained from a pilot study that assessed the clinical effectiveness of crofelemer (SP-303) in alleviating clinical signs associated with secretory diarrhea in dogs (CANA-001) and the wide margin of safety established in 30-day (WIL-288006) and 9-month (WIL-288022) toxicity studies. Chronic safety of crofelemer in dogs was studied in a 9-month study during which tablets were administered in capsules once daily, 7 days per week, for 273 or 274 days to three groups of beagle dogs. Dosage levels were 50, 175 and 600 mg/kg/day, plus a concurrent control group. Based on the results of this study, the no-observed-adverse-effect level (NOAEL) for oral (capsule) administration of enteric-coated crofelemer tablets to dogs for 273 or 274 consecutive days was 50 mg/kg/day. […] Thus, the no effect level is estimated to be between 50 and 175 mg/kg/day.

Take `Cc1[nH]c(/C=C2\C(=O)Nc3ccc(F)cc32)c(C)c1C(=O)NCCN1CCCC1.O=P(O)(O)O` [toceranib phosphate, Toceranib phosphate]: the “objective response (primary effectiveness endpoint)” value in series [1] (end of the six-week masked phase, vs placebo 8%, p<0.001) is on record as 37%. In series [1] (masked phase), the all grade diarrhea is recorded as 46% and the “grade 3-4 diarrhea” value is 7%. Besides, in series [1] (masked plus open label phases), the any grade diarrhea is 59% and the “grade 3-4 diarrhea” value is on record as 8%.
In the case of Crofelemer, in series [2], the “primary adverse effect at the higher dosages” value was “gastrointestinal irritation”.
